What was measured:
Type in all cases: cell-based
[1] = test system: FGF-7; assay: Increased expression of FGF-7 in human dermal papilla cells by quantitative RT-PCR
Experimental: The human dermal papilla cells (DPC) used in the experiment consisted of DPC originating in a person that were placed in frozen storage after being isolated and cultured from human scalp provided as a by-product of plastic surgery. […] Only MEM (serum-free) was used for the control cells, and these cells were treated in the same manner. mRNA was extracted from the cultured cells with MagNAPureLC (Roche Diagnostics) at 2, 4, 8 and 24 hours after addition of adenosine followed by cDNA synthesis using the SuperScriptII reverse transcriptase kit (Invitrogen). The expressed amounts of mRNA were compared by real-time PCR using the fluorescent pigment CyberGreen I, which binds to the minor grooves of double-stranded DNA, with the LightCycler-FastStart DNA Master SYBR Green I Kit (Roche Diagnostics) by using the synthesized cDNA as a template. […] This fluorescent intensity reflects the amount of PCR product at that point in time. The amount of expressed gene was hypothesized to be that which is amplified while satisfying Y=A×2^X for the PCR product Y of the initial amount of template A during the exponential amplification period of the PCR product relative to the number of PCR cycles X, and a relative value was calculated from the number of cycles needed to obtain a given amount of PCR product. The following indicates the FGF-7 amplification primers used in this study. An RT-PCR experiment was carried out in the same manner as Experiment 1 with the exception of using two concentrations of adenosine consisting of 10 μM and 100 μM and setting the duration of adenosine treatment to 3 hours. […] The results are shown in FIGS. 4, 5 and 6, respectively.

[2] = test system: FGF-7; assay: Increased expression of FGF-7 in human immortalized dermal papilla cells by quantitative RT-PCR; details: human immortalized dermal papilla cells (SV40 large T antigen), adenosine, 2 hours, FIG. 8
Experimental: mRNA was extracted from the cultured cells with MagNAPureLC (Roche Diagnostics) at 2, 4, 8 and 24 hours after addition of adenosine followed by cDNA synthesis using the SuperScriptII reverse transcriptase kit (Invitrogen). The expressed amounts of mRNA were compared by real-time PCR using the fluorescent pigment CyberGreen I, which binds to the minor grooves of double-stranded DNA, with the LightCycler-FastStart DNA Master SYBR Green I Kit (Roche Diagnostics) by using the synthesized cDNA as a template. […] The amount of expressed gene was hypothesized to be that which is amplified while satisfying Y=A×2^X for the PCR product Y of the initial amount of template A during the exponential amplification period of the PCR product relative to the number of PCR cycles X, and a relative value was calculated from the number of cycles needed to obtain a given amount of PCR product. […]

[3] = test system: FGF-7; assay: Increased expression of FGF-7 in human outer root sheath cells by quantitative RT-PCR; details: adenosine 10 or 100 μM, 3 hours, FIG. 9
Experimental: The expressed amounts of mRNA were compared by real-time PCR using the fluorescent pigment CyberGreen I, which binds to the minor grooves of double-stranded DNA, with the LightCycler-FastStart DNA Master SYBR Green I Kit (Roche Diagnostics) by using the synthesized cDNA as a template. More specifically, a total volume of 20 μl of reaction liquid (MgCl2: 2 mM, forward and reverse primer: 0.25 μM each) was prepared according to the manual provided using the LightCycler-FastStart DNA Master SYBR Green I Kit (Roche Diagnostics), and a PCR reaction was carried out with the LightCycler (enzyme activation: 95° C./10 minutes; thermal denaturation: 95° C./15 seconds; annealing: 58° C./5 seconds; elongation reaction: 72° C./10 seconds; 40 cycles of thermal denaturation to elongation reaction) followed by monitoring fluorescent intensity at completion of the elongation reaction of each cycle. This fluorescent intensity reflects the amount of PCR product at that point in time. The amount of expressed gene was hypothesized to be that which is amplified while satisfying Y=A×2^X for the PCR product Y of the initial amount of template A during the exponential amplification period of the PCR product relative to the number of PCR cycles X, and a relative value was calculated from the number of cycles needed to obtain a given amount of PCR product. […]

[4] = CCPA 100 μM, C1-IB-MECA 50 μM, NECA 10 μM, 3 hours, FIG. 3
[5] = 100 μM, 2 hours, FIGS. 4, 5 and 6

SMILES	expression of FGF-7 (relative amount) [1, 4]	inhibition of increased FGF-7 expression by the adenosine receptor inhibitor 8-SPT ([1]; 100 μM, 2 hours)	expression of FGF-7 (relative amount) [1, 5]	further results
CCNC(=O)[C@H]1O[C@@H](n2cnc3c(N)ncnc32)[C@H](O)[C@@H]1O [NECA, N-ethylcarboxyamidoadenosine, reference compound]	significantly increased			
Nc1ncnc2c1ncn2[C@@H]1O[C@H](CO)[C@@H](O)[C@H]1O [adenosine]				expression of FGF-7 (relative amount) [2]: increased expression of FGF-7; expression of FGF-7 (relative amount) [3]: prominent increase in expression of FGF-7; expression of FGF-7 (relative amount) ([1]; adenosine 10 μM and 100 μM, 3 hours, FIG. 2): increase dependent on the concentration of adenosine; expression of FGF-7 (relative value) ([1]; adenosine 100 μM, mRNA at 2, 4, 8 and 24 hours, FIG. 1): increased considerably
OC[C@H]1O[C@@H](n2cnc3c(NC4CCCC4)nc(Cl)nc32)[C@H](O)[C@@H]1O [CCPA, 2-chloro-N^6-cyclopentyladenosine, reference compound]	significantly increased			
Cc1ccc(C2Oc3ccccc3C(=O)C2C)cc1 (stereo not drawn) [3,4′-dimethylflavanone]		not observed	increased expression of FGF-7	
CC1C(=O)c2ccccc2OC1c1ccccc1 (stereo not drawn) [3-methylflavanone]		not observed	increased expression of FGF-7	
O=C1CC(c2ccccc2)Oc2ccccc21 (stereo not drawn) [flavanone, reference compound]		not observed	increased expression of FGF-7	

Reference: US20070299032A1, “Method and Composition for Thickening Hair” (Shiseido Company, Ltd., priority 2003, published 2007)
